This note sets out measurements from US7094869B2, “Low molecular weight peptidomimetic growth hormone secretagogues” (Genentech, Inc., priority 1994, dated 2006).

“Also recorded” adds a separate entry of the source. Read-outs that look alike come from different tables or passages of the source.

One test deals with growth hormone secretion. Description: GHRP induced growth hormone secretion, intravenous administration (Rat IV). The class given is in vivo. A digest of the protocol:
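Female Sprague Dawley rats (24-30 days, 50-90 g) under intraperitoneal pentobarbitone received graded intravenous tail-vein peptide doses in pH 5.0 sodium acetate/mannitol buffer 20 min post-anaesthesia. Blood by cardiac puncture 10 min after dosing; serum GH measured by rat GH ELISA in duplicate.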

The test system of a further test is ACTH. As to the kind of experiment: ACTH release from pituitary cells (RIA). The class given is cell-based, rat. As to conditions: 100 nM. The method, then: (§1) Dispersion: Adult female Sprague-Dawley (160-180 g., Charles River) rats were group-caged in a 12:12 light:dark cycle with food and water available ad libitum. Pituitaries from ten rats were removed, the posterior pituitary discarded and the anterior pituitary placed in Hanks' Balanced Salt Solution (HBSS: without calcium chloride, w/o magnesium chloride, w/o magnesium sulfate; Gibco) containing 20 mM HEPES (Gibco) and 100 U/ml penicillin streptomycin (PS: JRH Biosciences). Under sterile conditions, pituitaries were rinsed twice then minced into small fragments with a razor blade. Fragments were resuspended in 5 ml of HBSS/HEPES containing 20 mg collagenase (Serva 17449) and […] of 1 mg/ml DNase (Sigma) for a 40 min. incubation in a 37° C. gyrotory water bath shaker (New Brunswick Scientific Model G76; setting 10). After the incubation, fragments were triturated to yield small clumps and single cells. The cells were centrifuged 1000× g for 5 min, resuspended, counted and plated at a final cell concentration of 100,000 cells/ml. Incubation media was DME low glucose media w/NaHCO3 (Gibco) containing 20 mM hepes, 100 U/ml PS and 10% FBS (Hyclone A-111-L). Cells were plated at 0.5 ml per well in 48 well plates (Falcon) and incubated at 37° C. in 5% C02 for three days. For challenges to determine release of other pituitary hormones cells were plated at 200,000 cells per ml with 2 ml per well of a Swell plate (Corning). Challenge: A (inip)bbFK-NH2 stock (or other GHRP) concentration of 1 mM was made in DMSO and diluted with warmed media approximately 30 min prior to use. The highest concentration of DMSO in media was 0.1%. […] STATISTICS: The mean for each group was determined and analyzed by one-way analysis of variance with a post-hoc Student-Newman-Keuls. […] The EC50 was calculated using a 4-parameter curve-fit program (Kaleidagraph). […] RIA of pituitary hormones: LH, FSH, TSH, and Prolactin were determined with commercially available kits from Amersham, and ACTH levels were determined by a RIA kit from ICN. […]

In the next test the test system is FSH. Description: FSH release from pituitary cells (RIA). Format: cell-based, rat. As to conditions: 100 nM; listed as (inip)-bbFK-NH2. The method, then:
as §1, with “After the incubation, fragments were triturated to yield small clumps and single cells.” left out, “cells/ml.” for “cells/ml. Incubation media was DME low glucose media w/NaHCO3 (Gibco) containing 20 mM hepes, 100 U/ml PS and 10% FBS (Hyclone A-111-L). Cells were plated at 0.5 ml per well in 48 well plates (Falcon) and incubated at 37° C. in 5% C02 for three days. For challenges to determine release of other pituitary hormones cells were plated at 200,000 cells per ml with 2 ml per well of a Swell plate (Corning). Challenge: A (inip)bbFK-NH2 stock (or other GHRP) concentration of 1 mM was made in DMSO and diluted with warmed media approximately 30 min prior to use. The highest concentration of DMSO in media was 0.1%.”

On to `NCCCC[C@H](NC(=O)[C@H](Cc1ccccc1)NC(=O)[C@@H](Cc1ccc2ccccc2c1)NC(=O)[C@@H](Cc1ccc2ccccc2c1)NC(=O)C1CCNCC1)C(N)=O` [(inip) b b F K amide, (inip)-DβNal-DβNal-Phe-Lys-amide], for which the “RAT IV ED50” value with growth hormone secretion (Table III, iv injection, serum GH 10 min after injection) came out at 0.2 µg. Further, in the test on growth hormone secretion (acute intravenous injection, 80 gram rats, doses 1.0, 0.2, 0.04 μg/injection), the “ED50 for induction of GH secretion” value was found to be 0.2 μg/rat. For the same compound, the figures for the ACTH release entry in the test on ACTH (listed as (inip)-bbFK-NH2) and with ACTH (listed as (inip)bbFK-NH2) were “unchanged” and “no significant change”, respectively. The FSH release result in the test with FSH is “had no effect on these hormone concentrations; also recorded: unchanged”. In addition, the “serum IGF-1 concentrations” value (either mode of delivery) was “not significantly affected”. The compound also registered a thymus weight (high dose infusion (100 μg/day)) of 0.25 ± 0.03 g and a thymus weight (high dose injections) of 0.33 ± 0.02 g. Further, the epiphyseal plate width (high dose injections) was found to be 191±8 μm and the epiphyseal plate width (low dose injections) was found to be 160±11 μm. Moreover, the heart weight (high dose injections) stood at 1.15 ± 0.10 g. The “eviscerated and skinned carcass weight” value reads like this: (high dose injections (50 μg 2 times a day)) 152.4 ± 2.5 g; (low dose injections (10 μg 2 times a day)) 152.8 ± 2.8 g. Also, the weight gain came out at 36 ± 3 g (in 14 days, FIG. 20) and 30 gram (twice daily injections of 10 μg, adult female rats). Further, the “cartilage growth (epiphyseal plate width)” value (infusions) is reported as “did not significantly increase cartilage growth”. The “skin weight compared to control” value (injections and low dose infusion) is listed as “heavier”. Further, the “soleus muscle, kidney and liver weight” value (injections or infusions, 14 days) is “unaffected”.
